In patent US12636260B2, “Application of α-asarone in preparation of medicine for preventing or treating hemorrhagic stroke” (CHENGDU XINRUI TAIKANG TECHNOLOGY CO., LTD., priority 2021, dated 2026):

Tested on: SAH rats
Assay: Secondary epilepsy in SAH rats (Racine score, seizures)
Type: in vivo, rat
Conditions: within 24 hours after SAH
Protocol: The experimental materials, grouping, modeling method and administration protocol were the same as those in the effect embodiment 1, and the seizures of rats in each group were observed within 24 hours after SAH.

[1] = group H, α-asarone emulsion injection 30 mg/kg tail vein
[2] = group L, α-asarone emulsion injection 7.5 mg/kg tail vein
[3] = group M, α-asarone emulsion injection 15 mg/kg tail vein
[4] = group O, α-asarone emulsion oral administration 40 mg/kg

## C/C=C/c1cc(OC)c(OC)cc1OC [α-asarone, trans-2,4,5-trimethoxy-1-propenylbenzene]
  incidence of secondary epilepsy: significantly reduce
[1]
  Clonic seizures (%): 8.0%
  Racine score: 0.73 ± 1.44
  Tonic seizures (%): 6.7%
[2]
  Clonic seizures (%): 6.7%
  Racine score: 0.53 ± 1.46
  Tonic seizures (%): 6.7%
[3]
  Clonic seizures (%): 5.6%
  Racine score: 0.44 ± 1.34
  Tonic seizures (%): 5.6%
[4]
  Clonic seizures (%): 15.4%
  Racine score: 0.77 ± 1.59
  Tonic seizures (%): 7.7%
